Counter-ions that a name gives are not always drawn.
Test system: RPA194
Test: RPA194 destruction / Pol I inhibition, high-content imaging in A375 cells
Assay type: cell-based
Conditions: A375 cells treated for 4 hours, anti-RPA194 immunofluorescence; pIC50 >= 5.02 deemed a Pol I inhibitor
Description: Cell culture: A375 cells (CRL-1619, ATCC) were grown in DMEM (GJBCO) supplemented with […] (GTBCO) in 5% CO2 at 37° C.
Cell treatment and Imaging: 18 hours post-seeding in cell carrier black 384-well plates (PerkinElmer) at 15 000 cells/well, A375 cells were treated for 4 hours with a positive control or test compounds (9 serial semi-log dilutions, top concentration 10 μM). Upon treatment A375 cells were (i) fixed for 15 min at RT with 4% of paraformaldehyde, (ii) permeabilized for 20 min at RT with 0.1-0.5% of NP-40, (iii) incubated with primary antibodies at 4° C.: anti-RPA194 (1:1000-1:1250 dilution, sc-48385, Santa Cruz Biotechnology) and anti-gH2Ax (1:5000 dilution, 81299, Abcam or 1:4000, JBW302, Millipore) (iv) incubated for 1 h at RT with Hoechst (1:5000 dilution, H3570, ThermoFisher) and secondary antibodies: anti-mouse-AlexaFluor488 (1:2000 dilution, A11001, ThermoFisher) and anti-rabbit-AlexaFluor647 (1:2000 dilution, A21443, ThermoFisher) or goat anti-mouse AlexaFluor-594 (1:1000 dilution). Images were acquired on an Operetta CLS High-Content Analysis System (PerkinElmer) (40× objective; 9 fields/well) and processed using the Columbus Image Analysis System (PerkinElmer) or by using Molecular Devices ImageXpress Micro XLS High Content Imager and MetaXpress high-content acquisition and analysis software.
In the table below, (+) is associated with a pIC50 5.02 to 5.8; (++) with pIC50 5.8 to 6.3; and (+++) with a pIC50 above 6.3.

| Activity Range (pIC50) | Compound |
| --- | --- |
| ++ ((++) with pIC50 5.8 to 6.3) | CC1(C)CCN(CCNC(=O)c2cccn3c(=O)c4ccc5ccccc5c4nc23)C1 [Example 21, N-(2-(3,3-dimethylpyrrolidin-1-yl)ethyl)-7-oxo-7H-benzo[h]pyrido[2,1-b]quinazoline-12-carboxamide hydrochloride] |
| +++ ((+++) with a pIC50 above 6.3) | CO[C@H]1CCN(CCNC(=O)c2cccn3c(=O)c4ccc5ccccc5c4nc23)C1 [Example 23, (S)-N-(2-(3-methoxypyrrolidin-1-yl)ethyl)-7-oxo-7H-benzo[h]pyrido[2,1-b]quinazoline-12-carboxamide hydrochloride] |
| ++ ((++) with pIC50 5.8 to 6.3) | C[C@@H](CN(C)C)NC(=O)c1cccn2c(=O)c3ccc4ccccc4c3nc12 [Example 13, (S)-N-(1-(dimethylamino)propan-2-yl)-7-oxo-7H-benzo[h]pyrido[2,1-b]quinazoline-12-carboxamide; hydrochloride] |
| +++ ((+++) with a pIC50 above 6.3) | CCN(C)CCNC(=O)c1cccn2c(=O)c3ccc4ccccc4c3nc12 [Example 18, N-(2-(ethyl(methyl)amino)ethyl)-7-oxo-7H-benzo[h]pyrido[2,1-blquinazoline-12-carboxamide hydrochloride] |
| ++ ((++) with pIC50 5.8 to 6.3) | C[C@H](CN1C[C@H](O)[C@@H](O)C1)NC(=O)c1cccn2c(=O)c3ccc4ccccc4c3nc12 [Example 27, N-((R)-1-((3S,4S)-3,4-dihydroxy-pyrrolidin-1-yl)propan-2-yl)-7-oxo-7H-benzo[h]pyrido[2,1-b]quinazoline-12-carboxamide hydrochloride] |
| +++ ((+++) with a pIC50 above 6.3) | O=C(NCCN1CC[C@H](O)C1)c1cccn2c(=O)c3ccc4ccccc4c3nc12 [Example 2, (S)-N-(2-(3-hydroxypyrrolidin-1-yl)ethyl)-7-oxo-7H-benzo[h]pyrido[2,1-b]quinazoline-12-carboxamide; hydrochloride] |
| ++ ((++) with pIC50 5.8 to 6.3) | C[C@@H](CN1CC[C@@H](O)C1)NC(=O)c1cccn2c(=O)c3ccc4ccccc4c3nc12 [Example 29, N-((S)-1-((R)-3-hydroxypyrrolidin-1-yl)propan-2-yl)-7-oxo-7H-benzo[h]pyrido[2,1-b]quinazoline-12-carboxamide hydrochloride] |
| ++ ((++) with pIC50 5.8 to 6.3) | O=C(NCCN1CCCCC1)c1cccn2c(=O)c3ccc4ccccc4c3nc12 [Example 15, 7-oxo-N-(2-(piperidin-1-yl)ethyl)-7H-benzo[h]pyrido[2,1-b]quinazoline-12-carboxamide; hydrochloride] |
| ++ ((++) with pIC50 5.8 to 6.3) | CN(C)C(C)(C)CNC(=O)c1cccn2c(=O)c3ccc4ccccc4c3nc12 [Example 6, N-(2-(dimethylamino)-2-methylpropyl)-7-oxo-7H-benzo[h]pyrido[2,1-b]quinazoline-12-carboxamide hydrochloride] |
| +++ ((+++) with a pIC50 above 6.3) | C[C@H](CNC(=O)c1cccn2c(=O)c3ccc4ccccc4c3nc12)N(C)C [Example 11, (R)-N-(2-(dimethylamino)propyl)-7-oxo-7H-benzo[h]pyrido[2,1-b]quinazoline-12-carboxamide; hydrochloride] |
| ++ ((++) with pIC50 5.8 to 6.3) | O=C1CCN(CCNC(=O)c2cccn3c(=O)c4ccc5ccccc5c4nc23)CC1 [Example 22, 7-oxo-N-(2-(4-oxopiperidin-1-yl)ethyl)-7H-benzo[h]pyrido[2,1-b]quinazoline-12-carboxamide hydrochloride] |

| Compound | Activity Range (pIC50) |
| --- | --- |
| O=C(NCCCN1CC[C@H](O)C1)c1cccn2c(=O)c3ccc4ccccc4c3nc12 [Example 39, (S)-N-(3-(3-hydroxypyrrolidin-1-yl)propyl)-7-oxo-7H-benzo[h]pyrido[2,1-b]quinazoline-12-carboxamide hydrochloride] | + ((+) is associated with a pIC50 5.02 to 5.8) |
| O=C(NCCO)c1cccn2c(=O)c3ccc4ccccc4c3nc12 [Example 32, N-(2-hydroxyethyl)-7-oxo-7H-benzo[h]pyrido[2,1-b]quinazoline-12-carboxamide; hydrochloride] | + ((+) is associated with a pIC50 5.02 to 5.8) |
| CN1CC(CNC(=O)c2cccn3c(=O)c4ccc5ccccc5c4nc23)C1 [Example 37, N-((1-methylazetidin-3-yl)methyl)-7-oxo-7H-benzo[h]pyrido[2,1-b]quinazoline-12-carboxamide; hydrochloride] | + ((+) is associated with a pIC50 5.02 to 5.8) |
| O=C(NCCCN1CC2CCC(C1)O2)c1cccn2c(=O)c3ccc4ccccc4c3nc12 [Example 34, N-(3-(8-oxa-3-azabicyclo[3.2.1]octan-3-yl)propyl)-7-oxo-7H-benzo[h]pyrido[2,1-b]quinazoline-12-carboxamide; hydrochloride] | + ((+) is associated with a pIC50 5.02 to 5.8) |
| CN(C)CCCNC(=O)c1cccn2c(=O)c3ccc4ccccc4c3nc12 [Example 38, N-(3-(dimethylamino)propyl)-7-oxo-7H-benzo[h]pyrido[2,1-b]quinazoline-12-carboxamide; hydrochloride] | + ((+) is associated with a pIC50 5.02 to 5.8) |
| O=C(NCCN1CCCC1)c1cccn2c(=O)c3ccc4ccccc4c3nc12 [Example 4, 7-oxo-N-(2-(pyrrolidin-1-yl)ethyl)-7H-benzo[h]pyrido[2,1-b]quinazoline-12-carboxamide hydrochloride] | +++ ((+++) with a pIC50 above 6.3) |
| NCCNC(=O)c1cccn2c(=O)c3ccc4ccccc4c3nc12 [Example 17, N-(2-aminoethyl)-7-oxo-7H-benzo[h]pyrido[2,1-b]quinazoline-12-carboxamide hydrochloride] | + ((+) is associated with a pIC50 5.02 to 5.8) |

Test system: NCI60 cancer cell lines
Test: not given
Conditions: cited from earlier work

| Compound | anticancer activity |
| --- | --- |
| CN(C)CCNC(=O)c1cccn2c(=O)c3cc4ccccc4cc3nc12 [BMH-21, 12H-Benzo[g]pyrido[2,1-b]quinazoline-4-carboxamide, N-[2(dimethylamino)ethyl]-12-oxo] | anticancer activity |

Test system: mouse xenograft
Test: not given
Conditions: mouse xenograft assays; cited from earlier work

| Compound | tumor burden |
| --- | --- |
| CN(C)CCNC(=O)c1cccn2c(=O)c3cc4ccccc4cc3nc12 [BMH-21, 12H-Benzo[g]pyrido[2,1-b]quinazoline-4-carboxamide, N-[2(dimethylamino)ethyl]-12-oxo] | reduced tumor burden |
